# Experimental data as given in patent publication US20070141276A1, “Novel 14 and 15 membered ring compounds” (priority 2003, published 2007).
# Structures can show the parent of a compound that is named as a salt.
# Key:
# Assay in all cases: MIC, broth dilution method in microtitre
# [1] = test system: E. faecalis ATCC 29212; type: cell-based; conditions: Enterococcus faecalis, ATCC29212
# Description: (§1) Using a standard broth dilution method in microtitre, compounds were tested for antibacterial activity. The compounds in the above examples gave minimum inhibitory concentrations (MICs) less than 1 microgram per millilitre against erythromycin-sensitive and erythromycin-resistant strains of Streptococcus pneumoniae and Streptococcus pyogenes.
# (§2) In addiffon, the MIC (μg/mL) of test compounds against various organisms was determined including:
# (§3) S. aureus Smith ATCC 13709, S. pneumonlae SP030, S. pyogenes 3565, E. faecalis ATCC 29212, H. influenzae ATCC 49247, M. catarrhalis ATCC 23246.
# [2] = test system: S. aureus Smith ATCC 13709; type: cell-based; conditions: Staphylococcus aureus, ATCC13709
# Description: as §1, §2, §3
# [3] = test system: S. pneumoniae SP030; type: cell-based; conditions: Streptococcus pneumoniae
# Description: as §1, §2, §3
# [4] = test system: S. pyogenes 3565; type: cell-based; conditions: Streptococcus pyogenes
# Description: as §1, §2, §3
# [5] = test system: H. influenzae ATCC 49247; type: cell-based, Haemophilus influenzae
# Description: as §1, §2, §3
# [6] = test system: M. catarrhalis ATCC 23246; type: cell-based, Moraxella catarrhalis
# Description: as §1, §2, §3
# [7] = test system: erythromycin-resistant strains of Streptococcus pneumoniae; type: cell-based
# Description: as §1
# [8] = test system: erythromycin-resistant strains of Streptococcus pyogenes; type: cell-based
# Description: as §1
MIC [1] [µg/mL],MIC [2] [µg/mL],MIC [3] [µg/mL],MIC [4] [µg/mL],MIC [7] [µg/mL],MIC [8] [µg/mL],Molecule,MIC [5] [µg/mL],MIC [6] [µg/mL]
≤ 1,≤ 1,≤ 1,≤ 1,–,–,"CC[C@H]1OC(=O)[C@H](C)[C@@H](O[C@H]2C[C@@](C)(OC)[C@@H](OC(=O)NCCNCCOc3ccc4c(c3)c(=O)c(C(=O)O)cn4CC)[C@H](C)O2)[C@H](C)[C@@H](O[C@@H]2O[C@H](C)CC(N(C)C)[C@H]2O)[C@](C)(OC)C[C@@H](C)C(=O)[C@H](C)[C@@H](O)[C@]1(C)O (stereo partly drawn) [Example 3, 4″-O-{2-[2-(3-Carboxy-1-ethyl-4-oxo-1,4-dihydro-quinolin-6-yloxy)-ethylamino]-ethylcarbamoyl}-6-O-methyl-erythromycin A monoformate salt]",–,–
–,–,–,–,–,–,"4″-O-3-[2-(3-Carboxy-7-chloro-1-cyclopropyl-4-oxo-1,4-dihydro-quinolin-6-yloxy)-ethoxy]-propylcarbamoyl}-azithromycin (A) and 4″-O-{3-[2-(3-Carboxy-1-cyclopropyl-4-oxo-1,4-dihydro-quinolin-6-yloxy)-ethoxy]-propylcarbamoyl)-azithromycin (B) [Example 1]",≤ 2,≤ 2
≤ 1,≤ 1,≤ 1,≤ 1,≤ 0.25,≤ 0.25,CC[C@H]1OC(=O)[C@H](C)[C@@H](O[C@H]2C[C@@](C)(OC)[C@@H](OC(=O)NCCCOCCOc3ccc4c(c3)c(=O)c(C(=O)O)cn4C3CC3)[C@H](C)O2)[C@H](C)[C@@H](O[C@@H]2O[C@H](C)C[C@H](N(C)C)[C@H]2O)[C@](C)(O)C[C@@H](C)CN(C)[C@H](C)[C@@H](O)[C@]1(C)O [Example 2],–,–
